Where a SMILES comes first, the peptide text is derived from it. The star is where a group is joined. Cbz = O=C(OCc1ccccc1)*
Legend:
IDO1 [1] = target: T1, IDO1 (Homo sapiens, UniProt P14902); assay: IDO1 degradation by western blot in IFNγ-stimulated U87 cells; details: for effect of co-treatment on NU223612-induced IDO1 degradation: combined with NU223612; for effect on IDO1 protein levels: U87 and GBM43 GBM cells in vitro, western blot
[2] = In vivo toxicity in C57BL/6 mice
IDO2 = assay: IDO1/IDO2 mRNA expression in GL261 cells; type: cell-based, mouse; details: 10 µM, 24 hours
IDO1 [3] = target: IDO1 (Mus musculus, UniProt P28776); assay: Pharmacodynamics: IDO1 western blot of intracranial GL261 mIDO1 tumors; details: GL261 mIDO1 cDNA tumors, single 25 mg/kg ip.
IDO1 [4] = target: T1, IDO1; assay: IDO1 degradation by western blot in IFNγ-stimulated GBM43 cells; details: 24 h, 0.01-30 μM, n = 3
IDO1 [5] = target: T1, IDO1; assay: BLI binding of compounds to immobilized IDO1
IDO1 enzyme activity = IDO1 enzyme activity (Homo sapiens, UniProt P14902); assay: Kynurenine assay; type: cell-based; details: IFNγ-stimulated GBM cells (U87, GBM43), 24 h
IDO1 [6] = target: T1, IDO1; assay: IDO1 degradation by western blot in patient PBMCs; type: cell-based; details: GBM patient-isolated PBMCs, 50 ng/mL IFNγ
[7] = Pharmacokinetics in C57BL/6 mice; type: in vivo; details: mouse, single 25 mg/kg ip.
[8] = target: NU223612/IDO1/CRBN ternary complex (Homo sapiens, UniProt P14902+Q96SW2); assay: BLI of NU223612 pre-incubated with CRBN binding to IDO1
IDO1 [9] = assay: IDO1 degradation by western blot in further cancer cell lines; type: cell-based, human; details: CD18, PANC-1, OVCAR5, SKOV3, PC3, GL261 IDO1-O/E; 24 h
[10] = test system: NF-κB p65 DNA binding activity; assay: NF-κB; type: cell-based, human; details: U87 nuclear extracts, 10 μM
IDO1 [11] = target: T1, IDO1; assay: IDO1 ubiquitination assay in U87 IDO1-FLAG cDNA-expressing cells; type: cell-based; details: immunoprecipitation, vs DMSO
[12] = test system: NF-κB p65 phosphorylation; assay: NF-κB p65 phosphorylation by western blot; type: cell-based, human; details: IFNγ-stimulated U87, GBM43 or MDA-MB-231 cells
TDO2 = TDO2 (Homo sapiens, UniProt P48775); assay: TDO2 western blot in U87 cells; type: cell-based; details: 24 h
GL261-luc. cells = assay: Survival of mice with intracranial GL261-luc. tumors; type: in vivo, C57BL/6 mice; details: 25 mg/kg once per day Monday-Friday up to 3 weeks, from day 14 post-injection
CRBN = CRBN (Homo sapiens, UniProt Q96SW2); assay: BLI binding of compounds to immobilized CRBN; details: steady-state, 30 °C, PBS with 0.5% DMSO
Chain of CRBN (Q96SW2 whole entry): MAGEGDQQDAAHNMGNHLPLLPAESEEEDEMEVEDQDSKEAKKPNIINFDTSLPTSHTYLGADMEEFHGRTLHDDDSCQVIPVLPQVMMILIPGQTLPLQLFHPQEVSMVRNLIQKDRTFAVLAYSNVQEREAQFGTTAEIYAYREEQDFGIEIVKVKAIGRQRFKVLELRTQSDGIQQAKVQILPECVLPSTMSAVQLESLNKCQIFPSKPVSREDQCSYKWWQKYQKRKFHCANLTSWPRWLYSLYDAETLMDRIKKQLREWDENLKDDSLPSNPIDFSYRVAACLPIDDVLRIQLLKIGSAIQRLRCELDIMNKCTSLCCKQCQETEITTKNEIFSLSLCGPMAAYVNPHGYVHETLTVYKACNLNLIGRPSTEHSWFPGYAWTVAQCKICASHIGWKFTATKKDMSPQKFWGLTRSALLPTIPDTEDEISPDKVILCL

T1 sequence (P14902 whole entry): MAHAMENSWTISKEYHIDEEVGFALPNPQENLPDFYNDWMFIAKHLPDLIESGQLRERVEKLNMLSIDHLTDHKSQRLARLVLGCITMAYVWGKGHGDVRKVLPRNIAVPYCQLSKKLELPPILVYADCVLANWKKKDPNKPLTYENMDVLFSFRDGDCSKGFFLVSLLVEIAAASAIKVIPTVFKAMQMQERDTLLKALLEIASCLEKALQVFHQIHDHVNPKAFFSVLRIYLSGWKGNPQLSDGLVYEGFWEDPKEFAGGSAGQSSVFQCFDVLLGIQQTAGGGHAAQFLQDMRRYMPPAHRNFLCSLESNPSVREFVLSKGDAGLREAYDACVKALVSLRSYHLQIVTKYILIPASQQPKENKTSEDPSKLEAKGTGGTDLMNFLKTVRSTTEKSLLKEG
Chain of NU223612/IDO1/CRBN ternary complex (P14902 whole entry): as above
Chain of NU223612/IDO1/CRBN ternary complex (Q96SW2 whole entry): as the sequence (Q96SW2 whole entry) above
Chain of IDO1 (Mus musculus, UniProt P28776) (P28776 whole entry): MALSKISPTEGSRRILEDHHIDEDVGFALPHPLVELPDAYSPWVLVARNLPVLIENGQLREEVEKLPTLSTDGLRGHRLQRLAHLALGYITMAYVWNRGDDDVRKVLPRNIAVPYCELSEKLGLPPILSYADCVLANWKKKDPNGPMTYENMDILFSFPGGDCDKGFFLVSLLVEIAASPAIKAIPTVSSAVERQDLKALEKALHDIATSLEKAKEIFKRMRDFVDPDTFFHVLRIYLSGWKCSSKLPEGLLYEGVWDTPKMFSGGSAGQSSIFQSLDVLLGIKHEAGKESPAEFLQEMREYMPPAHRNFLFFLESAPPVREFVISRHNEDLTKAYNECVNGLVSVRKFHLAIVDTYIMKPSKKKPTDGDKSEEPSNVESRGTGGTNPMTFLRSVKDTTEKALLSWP
Chain of IDO1 enzyme activity (P14902 whole entry): as the sequence (P14902 whole entry) above
Chain of TDO2 (P48775 whole entry): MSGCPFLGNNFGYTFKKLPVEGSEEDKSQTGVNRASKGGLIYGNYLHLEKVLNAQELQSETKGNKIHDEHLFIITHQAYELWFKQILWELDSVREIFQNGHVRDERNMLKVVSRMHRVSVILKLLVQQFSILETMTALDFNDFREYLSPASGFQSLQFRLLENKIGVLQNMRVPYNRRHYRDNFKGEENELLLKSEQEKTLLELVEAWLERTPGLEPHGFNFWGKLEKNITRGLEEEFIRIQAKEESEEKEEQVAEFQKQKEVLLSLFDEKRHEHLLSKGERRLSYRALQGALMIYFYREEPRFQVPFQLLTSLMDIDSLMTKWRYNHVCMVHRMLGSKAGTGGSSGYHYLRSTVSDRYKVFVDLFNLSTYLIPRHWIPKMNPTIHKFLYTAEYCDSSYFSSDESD

CC(C)C[C@@H](C=O)NC(=O)[C@H](CC(C)C)NC(=O)[C@H](CC(C)C)NC(=O)OCc1ccccc1 [MG132, reference compound] (Cbz-Leu-Leu-Leu-aldehyde)
effect of co-treatment on NU223612-induced IDO1 degradation (IDO1 [1]; U87 cells): ablation of IDO1-PROTAC-mediated IDO1 protein degradation

NS(=O)(=O)OC[C@@H]1C[C@@H](n2ccc3c(N[C@H]4CCc5ccccc54)ncnc32)C[C@@H]1O [MLN4924, reference compound]
effect of co-treatment on NU223612-induced IDO1 degradation (IDO1 [1]; U87 cells): ablation of IDO1-PROTAC-mediated IDO1 protein degradation

C[C@@H](C(=O)Nc1ccc(OC2CCN(C(=O)CCOCCOCCNc3cccc4c3C(=O)N(C3CCC(=O)NC3=O)C4=O)CC2)cc1)[C@H]1CC[C@@H](c2ccnc3ccc(F)cc32)CC1 (stereo partly drawn) [NU223612, (2R)-N-(4-((1-(3-(2-(2-((2-(2,6-Dioxopiperidin-3-yl)-1,3-dioxoisoindolin-4-Yl)amino)ethoxy)ethoxy)propanoyl)piperidin-4-yl)oxy)phenyl)-2-((1S,4S)-4-(6-fluoroquinolin-4-yl)cyclohexyl)propenamide]
mortality ([2]; 100 mg/kg ip. 5 days/week for 3 weeks): increased mortality | precipitation of compound in the abdomen ([2]; 50 and 100 mg/kg doses ip.): precipitation of NU223612 observed around the intestines, liver, and pancreas | accumulation in serum and brain tissue ([2]; after 3 weeks ip., mice without brain tumors, mass spectrometry): dose-dependent accumulation of NU223612 in serum and brain tissue | body-weight changes ([2]; ip. 5 days/week for 3 weeks, 10, 25, 50 or 100 mg/kg): did not result in significant body-weight changes at any dose | IDO2 (and IDO1) mRNA expression levels (IDO2): no significant NU223612 effects on glioma cell IDO2 expression levels | time IDO1 protein remains low in intracranial tumors (IDO1 [3]): up to 24 h | decrease of IDO1 protein in intracranial tumors (IDO1 [3]; within 2 h post-treatment): > 70% | DC50 (IDO1 [4]): 544 nM | koff (IDO1 [5]; read-out: koff, NU223612/IDO1 binary complex): 0.042 s⁻¹ | kon (IDO1 [5]; read-out: kon, NU223612/IDO1 binary complex): 68900 M⁻¹ s⁻¹ | IDO1 enzyme activity (Kyn levels) (IDO1 enzyme activity): dose-dependently inhibits IDO1 enzyme activity | IDO1 degradation in PBMCs (IDO1 [6]): degrades IDO1 protein | effect on IDO1 protein levels (IDO1 [1]): decreases IDO1 protein levels dose-dependently | degradation of catalytically inactive mutant IDO1 (IDO1 [1]; U87 cells transfected with enzyme-null IDO1 cDNA, 24 h): facilitated protein degradation of IDO1 enzyme-dead protein | IDO1 protein degradation at 100 nM (IDO1 [1]; U87 cells, 100 nM, 24 h): significant IDO1 protein degradation | duration of IDO1 degradation after a single continuous treatment (IDO1 [1]; U87 cells, 1 and 10 μM): up to 72 h | DC50 (IDO1 [1]; U87 cells, IFNγ-stimulated, 24 h, 0.01-30 μM, n = 3): 329 nM | effect of washout after 24 h on IDO1 degradation (IDO1 [1]; U87 cells, cultured without compound up to 48 h): did not affect the degradation of IDO1 protein | nuclear and cytoplasmic IDO1 degradation (IDO1 [1]; U87 cells, subcellular fractions): equally degraded IDO1 protein levels in both the cytoplasmic and nuclear intracellular compartments | duration of IDO1 degradation effect (IDO1 [1]; human GBM cells (U87, GBM43)): at least 96 h | time at which IDO1 degradation began after treatment initiation (IDO1 [1]; human GBM cells (U87, GBM43)): 16 h | Cmax, brain [7]: 2000 nM | Kd [8]: 117 nM | cooperativity α = Kd binary/Kd ternary [8]: 2.5 | koff ([8]; read-out: koff, ternary NU223612/CRBN/IDO1 complex): 0.0015 s⁻¹ | kon ([8]; read-out: kon, ternary NU223612/CRBN/IDO1 complex): 12800 M⁻¹ s⁻¹ | IDO1 degradation in other cancer cell types (IDO1 [9]): dose-dependently degrades IDO1 in all of the human cancer cell types that were analyzed | NF-κB p65 transcription factor DNA binding activity [10]: inhibits both IDO1-mediated tryptophan metabolism as well as IDO1 non-enzyme-mediated NF-κB p65 transcription factor DNA binding activity | ubiquitination of IDO1 (IDO1 [11]): causes monoubiquitination of IDO1 | p65 phosphorylation [12]: decreases p65 phosphorylation | effect on TDO2 protein levels (TDO2): did not decrease TDO2 protein levels | longer-term survival post-tumor cell injection (GL261-luc. cells): up to 45 days

C[C@@H](C(=O)Nc1ccc(Cl)cc1)[C@H]1CC[C@@H](c2ccnc3ccc(F)cc32)CC1 [NU223618, reference compound]
p65 phosphorylation [12]: neither NU226211 nor NU223618 inhibits NF-κB phosphorylation

C[C@@H](C(=O)Nc1ccc(OC2CCN(C(=O)CCOCCOCCNc3cccc4c3C(=O)N(C3CCC(=O)N(C)C3=O)C4=O)CC2)cc1)[C@H]1CC[C@@H](c2ccnc3ccc(F)cc32)CC1 (stereo partly drawn) [NU226211, (2R)-2-((1S,4S)-4-(6-Fluoroquinolin-4-yl)cyclohexyl)-N-(4-((1-(3-(2-(2-((2-(1-methyl-2,6-dioxopiperidin-3-yl)-1,3-dioxoisoindolin-4-yl)amino)ethoxy)ethoxy)propanoyl)piperidin-4-yl)oxy)phenyl)propenamide]
binding affinity (Kd) to CRBN (CRBN): no measurable binding | effect on IDO1 protein levels (IDO1 [1]): neither NU226211 nor NU223618 decreases IDO1 protein levels | ubiquitination of IDO1 (IDO1 [11]): neither NU226211 nor NU223618 mediated the ubiquitination | p65 phosphorylation [12]: neither NU226211 nor NU223618 inhibits NF-κB phosphorylation

Nc1cccc2c1C(=O)N(C1CCC(=O)NC1=O)C2=O (stereo not shown) [pomalidomide, reference compound]
effect of co-treatment on NU223612-induced IDO1 degradation (IDO1 [1]; U87 cells): ablation of IDO1-PROTAC-mediated IDO1 protein degradation

— paper PMC9743093 (Journal of Medicinal Chemistry, 2022)
